Assay results from US5198439A, “Angiotension II antagonizing pyridine derivatives” (Imperial Chemical Industries PLC, priority 1990, dated 1993).

Tests used:
AII receptors = biological target: T1, AII receptors (Cavia porcellus, UniProt Q9WV26); assay: Test A: displacement of radiolabelled AII binding to guinea pig adrenal gland cell surface membranes; details: read-out: IC50 (concentration for 50% displacement of radiolabelled AII binding)
T1 construct: the source of cell surface membranes is the guinea pig adrenal gland; from tissue; host or cells: guinea pig adrenal gland, cell surface membrane fraction
T1 sequence (Q9WV26 1-359): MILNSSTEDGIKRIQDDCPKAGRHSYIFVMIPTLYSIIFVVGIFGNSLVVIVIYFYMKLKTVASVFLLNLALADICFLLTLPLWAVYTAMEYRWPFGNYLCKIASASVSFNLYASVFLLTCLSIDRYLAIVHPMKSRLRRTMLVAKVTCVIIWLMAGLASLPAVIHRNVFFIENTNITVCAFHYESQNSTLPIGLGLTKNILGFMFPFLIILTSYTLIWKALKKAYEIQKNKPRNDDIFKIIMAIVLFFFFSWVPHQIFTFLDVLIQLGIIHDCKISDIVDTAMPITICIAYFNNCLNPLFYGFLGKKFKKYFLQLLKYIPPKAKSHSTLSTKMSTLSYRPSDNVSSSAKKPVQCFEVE
Method: Test A: This in vitro procedure involves the incubation of the test compound initially at a concentration of 100 micromolar (or less) in a buffered mixture containing fixed concentrations of radiolabelled AII and a cell surface membrane fraction prepared from a suitable angiotensin target tissue. In this test, the source of cell surface membranes is the guinea pig adrenal gland which is well known to respond to AII. Interaction of the radiolabelled AII with its receptors (assessed as radiolabel bound to the particulate membrane fraction following removal of unbound radiolabel by a rapid filtration procedure such as is standard in such studies) is antagonized by compounds which also bind to the membrane receptor sites and the degree of antagonism (observed in the test as displacement of membrane-bound radioactivity) is determined readily by comparing the receptor-bound radioactivity in the presence of the test compound at the specified test concentration with a control value determined in the absence of the test compound. Using this procedure compounds showing at least 50% displacement of radiolabelled AII binding at a concentration of 10^-4 M are retested at lower concentrations to determine their potency. […]

[1] = test system: angiotensin II-induced pressor responses; assay: Test C: antagonism of angiotensin II-induced pressor responses in rats; assay type: in vivo; details: iv, rat, i.v. administration
Method: Test C: This in vivo test involves using terminally-anaesthetised or conscious rats in which an arterial catheter has been implanted under anaesthesia for the measurement of changes in blood pressure. The AII antagonistic effects of the test compound following oral or parenteral administration, are assessed against angiotensin II-induced pressor responses. To ensure that the effect is specific, the effect of the test compound on vasopressin-induced pressor responses may also be determined in the same preparation.

- IC50 (AII receptors): 50 nM
Structure (SMILES): COC(=O)c1c(OCc2ccc(-c3ccccc3-c3nnn[nH]3)cc2)cc(C)nc1C.Cl [Example 2, methyl 2,6-dimethyl-4-[(2'-(1H-tetrazol-5-yl)biphenyl-4-yl)methoxy]pyridine-3-carboxylate hydrochloride]
- ED50 [1]: 0.1 mg/kg
